Tests used:
human PNP [1] = molecular target: T1, human PNP (Homo sapiens, UniProt P00491); assay: biochemical
human PNP [2] = molecular target: T1, human PNP
blood PNP = blood PNP (Mus musculus, UniProt P23492); details: mice
blood PNP, sequence (P23492 whole entry): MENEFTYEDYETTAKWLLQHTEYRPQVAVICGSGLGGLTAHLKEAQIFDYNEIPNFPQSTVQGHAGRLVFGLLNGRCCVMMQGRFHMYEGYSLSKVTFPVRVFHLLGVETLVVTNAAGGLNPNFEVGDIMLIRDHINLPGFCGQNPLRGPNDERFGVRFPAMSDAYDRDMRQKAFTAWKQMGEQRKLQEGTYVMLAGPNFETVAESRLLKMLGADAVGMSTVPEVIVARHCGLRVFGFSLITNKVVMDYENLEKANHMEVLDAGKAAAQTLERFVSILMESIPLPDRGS

T1 sequence (P00491 whole entry): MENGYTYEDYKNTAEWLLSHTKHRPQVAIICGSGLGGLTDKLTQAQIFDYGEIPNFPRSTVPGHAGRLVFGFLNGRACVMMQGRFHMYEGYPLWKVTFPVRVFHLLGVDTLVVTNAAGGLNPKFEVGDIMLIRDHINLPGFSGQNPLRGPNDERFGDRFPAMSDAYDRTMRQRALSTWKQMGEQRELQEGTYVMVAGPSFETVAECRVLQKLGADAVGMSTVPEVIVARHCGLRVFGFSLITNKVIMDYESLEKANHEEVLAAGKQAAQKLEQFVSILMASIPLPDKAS

| Compound | Kd (human PNP [1]) [pM] | times more active inhibitor than 9-deazahypoxanthine analogue 11 (human PNP [2]) | time to complete inhibition of PNP catalytic activity (blood PNP; single 50 nmol dose, i.p. injection) [min] | inhibition of blood PNP catalytic activity (blood PNP; single oral dose, for a period of 25 days) [%] |
| --- | --- | --- | --- | --- |
| Nc1nc2c(CNC(CO)CO)c[nH]c2c(=O)[nH]1 [Compound 8, 2-Amino-7-{[(1,3-dihydroxypropan-2-yl)amino]methyl}-3,5-dihydro-4H-pyrrolo[3,2-d]pyrimidin-4-one] | 2.1 | – | – | – |
| Nc1nc2c(CN[C@H](CO)[C@H](O)CO)c[nH]c2c(=O)[nH]1 [Compound 9, 2-Amino-7-({[(2R,3S)-1,3,4-trihydroxybutan-2-yl]amino}methyl)-3,5-dihydro-4Hpyrrolo[3,2-d]pyrimidin-4-one] | – | 2 – 3 times | – | – |
| O=c1[nH]cnc2c(CNC(CO)CO)c[nH]c12 [Compound 10] | 5.2 | – | ≤ 20 | > 50 |

Reference: PMC2698043 (Journal of medicinal chemistry, 2009)
